The record followed here is US20250188110A1, “SPECIFIC SMALL MOLECULE INHIBITORS THAT BLOCK KMT9 METHYLTRANSFERASE ACTIVITY AND FUNCTION” (ALBERT-LUDWIGS-UNIVERSITÄT FREIBURG, priority 2021, published 2025).

Holding throughout (assay type): cell-based
One test relates to PC-3M. Kind of test: Further cell proliferation assay, X-Celligence RTCA, PC-3M. The note with it: Homo sapiens, castration resistant prostate cancer cells. As for the experimental part: (§1) Compound no. 1 (Name 287) was tested in further cell proliferation assays using different cancer cell lines. Cell proliferation was determined using X-Celligence RTCA system (Roche). For real-time recording of CAL-29, VM-CUB1, SW480, SKBR3, HT-1376, PC-3M, A549, UM-UC-3, DU145 and 22RV1, between 2500 and 20000 cells/well (depending on the cell type) were seeded in 16 well E-plates (Roche). Cells were seeded in presence of DMSO or Compound no. 1 (Name 287) 24 h before seeding in E-plates. Cell indices were automatically recorded every 15 minutes. Relative velocities represent the change of the cell index over time. The ECso values of compound no.

Another test deals with 22RV1. Kind of test: Further cell proliferation assay, X-Celligence RTCA, 22RV1. The note with it: Homo sapiens; 22RV1, castration resistant prostate cancer cells. How it is done:
as §1

The next test has as its system HT-1376. Nature of the test: Further cell proliferation assay, X-Celligence RTCA, HT-1376. The note with it: Homo sapiens. How it is done:
as §1

The subject of the next test is DU145. Kind of test: Further cell proliferation assay, X-Celligence RTCA, DU145. The conditions noted are these: Homo sapiens, DU-145; DU145, castration resistant prostate cancer cells. How it is done: as §1
The subject of another test is SW480. Kind of test: Further cell proliferation assay, X-Celligence RTCA, SW480. The conditions noted are these: Homo sapiens. As for the experimental part: as §1
The next test has as its system SKBR3. Kind of test: Further cell proliferation assay, X-Celligence RTCA, SKBR3. The conditions noted are these: Homo sapiens, SK-BR-3. How it is done: as §1
The next test deals with A549. Kind of test: Further cell proliferation assay, X-Celligence RTCA, A549. The conditions noted are these: Homo sapiens. How it is done:
as §1

A further test relates to VM-CUB1. Kind of test: Further cell proliferation assay, X-Celligence RTCA, VM-CUB1. The note with it: Homo sapiens, VM-CUB-1. How it is done: as §1
In the next test the test system is UM-UC-3. Nature of the test: Further cell proliferation assay, X-Celligence RTCA, UM-UC-3. The note with it: Homo sapiens, UMUC3. As for the experimental part:
as §1

For the next test, the system named is CAL-29. Kind of test: Further cell proliferation assay, X-Celligence RTCA, CAL-29. As for the experimental part: as §1

Broadly, the EC50 is the midpoint of the concentration-response curve. With `CNc1ncnc2c1ccn2[C@@H]1C[C@H](CNCCCNCCc2cccc(Oc3ccccc3)c2)[C@@H](O)[C@H]1O` [Compound 287, (1R,2S,3R,5R)-3-(4-(methylamino)-7H-pyrrolo[2,3-d]pyrimidin-7-yl)-5-(((3-((3-phenoxyphenethyl)amino)propyl)amino)methyl) cyclopentane-1,2-diol], the half-maximal effective concentration (EC50) in the test on PC-3M turned out to be 15.8 µM; in the test with 22RV1, 16.6 µM; with HT-1376 it was 12.6 µM; in the test on DU145, 19 µM; with SW480, 9.12 µM; with SKBR3, 6.6 µM. Moreover, the EC50 in the test with A549 is 12 µM; in the test with VM-CUB1, 6.17 µM; with UM-UC-3 it was 17 µM; in the test on CAL-29, 6.45 µM.
